For test [1], the system named is U-937. The experiment in a line: Induction of apoptosis in human U937 cells at 5 uM after 30 hrs. In kind it is functional, cell-based.
A short description of test [2]: Cell cycle arrest in apoptosis in AML patient blasts at 5 uM after 26 hrs. In kind it is functional. The settings on record: Homo sapiens.
Test [3] has as its system AML. In words: Induction of apoptosis in AML patient blasts at 5 uM after 26 hrs. In kind it is functional. The settings on record: Homo sapiens.
The target in test [4] is T1, Protein deacetylase HDAC6 (Homo sapiens) (UniProt Q9UBN7).
T1 sequence (whole entry): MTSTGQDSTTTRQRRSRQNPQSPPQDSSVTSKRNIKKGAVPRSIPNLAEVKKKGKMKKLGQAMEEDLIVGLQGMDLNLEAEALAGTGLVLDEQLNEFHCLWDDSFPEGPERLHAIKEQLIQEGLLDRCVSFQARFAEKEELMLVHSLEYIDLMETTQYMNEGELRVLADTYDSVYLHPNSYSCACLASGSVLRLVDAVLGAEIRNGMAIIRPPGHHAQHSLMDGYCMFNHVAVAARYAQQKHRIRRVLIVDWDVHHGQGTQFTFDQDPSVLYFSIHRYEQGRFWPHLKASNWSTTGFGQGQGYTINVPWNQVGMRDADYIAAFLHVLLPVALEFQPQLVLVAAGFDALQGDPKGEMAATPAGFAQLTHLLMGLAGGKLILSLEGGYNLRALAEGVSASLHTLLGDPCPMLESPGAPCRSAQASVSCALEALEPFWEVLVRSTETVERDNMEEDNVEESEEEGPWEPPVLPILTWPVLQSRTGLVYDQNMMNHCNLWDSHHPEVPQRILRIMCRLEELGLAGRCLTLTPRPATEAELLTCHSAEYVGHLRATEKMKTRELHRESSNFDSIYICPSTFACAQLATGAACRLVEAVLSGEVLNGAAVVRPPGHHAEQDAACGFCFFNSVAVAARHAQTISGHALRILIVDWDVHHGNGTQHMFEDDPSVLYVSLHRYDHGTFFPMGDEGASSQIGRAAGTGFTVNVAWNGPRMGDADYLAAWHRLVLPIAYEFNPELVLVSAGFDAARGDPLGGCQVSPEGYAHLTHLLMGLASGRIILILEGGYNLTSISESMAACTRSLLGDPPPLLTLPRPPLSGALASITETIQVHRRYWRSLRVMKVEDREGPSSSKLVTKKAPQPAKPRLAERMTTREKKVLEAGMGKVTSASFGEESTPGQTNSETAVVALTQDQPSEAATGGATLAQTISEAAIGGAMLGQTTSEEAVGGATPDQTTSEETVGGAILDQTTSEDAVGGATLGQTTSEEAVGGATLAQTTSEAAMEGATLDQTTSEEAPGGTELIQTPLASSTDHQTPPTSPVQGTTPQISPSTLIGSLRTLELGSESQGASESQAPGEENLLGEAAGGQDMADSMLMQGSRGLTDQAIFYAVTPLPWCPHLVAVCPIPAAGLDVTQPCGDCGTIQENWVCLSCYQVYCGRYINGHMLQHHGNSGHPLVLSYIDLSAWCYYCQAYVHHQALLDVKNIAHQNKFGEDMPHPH
In words: Inhibition of HDAC6 in human U937 cells assessed as induction of alpha-tubulin acetylation at 5 uM after 30 hrs by cytofluorimetric analysis. In kind it is cell-based. The settings on record: U-937.

Test [5] has as its target Histone deacetylase 4 (Homo sapiens) (UniProt P56524). In words: Inhibition of HDAC4 in human U937 cells at 5 uM […]. In kind it is cell-based. The settings on record: U-937.
Test [6] concerns U-937. The experiment in a line: Induction of cell differentiation in human U937 cells assessed as CD11c expression at 5 uM after 30 hrs by cytofluorimetric analysis. In kind it is functional, cell-based.
Test [7] concerns the target Histone deacetylase (Homo sapiens) (UniProt Q13547+O15379+Q9UBN7+Q92769+Q9UQL6+Q8WUI4+Q9BY41+Q96DB2+P56524+Q9UKV0+Q969S8). In words: Inhibition of HDAC in human U937 cells assessed as induction of histone H3 acetylation at 5 uM after 30 hrs by cytofluorimetric analysis. In kind it is cell-based. The settings on record: U-937.
In test [8] the target is Histone deacetylase 1 (Homo sapiens) (UniProt Q13547). The experiment in a line: Inhibition of HDAC1 in human U937 cells at 5 uM […]. In kind it is cell-based. The conditions noted are these: U-937.
Sequence of Histone deacetylase 1 (Homo sapiens) (Q13547 whole entry): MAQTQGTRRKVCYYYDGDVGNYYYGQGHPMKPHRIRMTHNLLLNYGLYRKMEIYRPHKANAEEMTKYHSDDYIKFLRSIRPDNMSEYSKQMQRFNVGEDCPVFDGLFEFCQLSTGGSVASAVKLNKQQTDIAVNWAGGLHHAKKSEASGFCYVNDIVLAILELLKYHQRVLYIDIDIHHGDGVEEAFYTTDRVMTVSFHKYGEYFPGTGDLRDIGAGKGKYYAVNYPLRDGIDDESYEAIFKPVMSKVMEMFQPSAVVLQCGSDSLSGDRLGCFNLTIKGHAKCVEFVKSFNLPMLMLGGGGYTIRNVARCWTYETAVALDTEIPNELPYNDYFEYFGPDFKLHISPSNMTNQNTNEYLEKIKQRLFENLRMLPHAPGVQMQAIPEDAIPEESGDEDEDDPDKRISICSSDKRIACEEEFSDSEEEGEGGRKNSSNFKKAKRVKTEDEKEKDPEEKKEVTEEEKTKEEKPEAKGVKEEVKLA
In test [9] the test system is U-937. The experiment in a line: Cell cycle arrest in human U937 cells at 5 uM after 24 hrs by cytofluorimetric analysis. In kind it is functional, cell-based.
The target of test [10] is Protein kinase C alpha type (Homo sapiens) (UniProt P17252). The experiment in a line: Inhibition of PKCalpha in human U937 cells assessed as p21WAF1/CIP1 expression at 5 uM after 30 hrs by cytofluorimetric analysis. In kind it is cell-based. The settings on record: U-937.
The test system of test [11] is U-937. In words: Effect on DNMT1 level in human U937 cells at 0.5 to 5 uM after 24 hrs by Western blot analysis. In kind it is functional, cell-based. A general note: In western blotting, separated proteins are transferred to a membrane and probed.
Test [12] concerns the target DNA (cytosine-5)-methyltransferase 1 (Homo sapiens) (UniProt P26358). The experiment in a line: Inhibition of DNMT1 human U937 cells assessed as reactivation of p16 expression at 5 uM after 24 hrs by Western blot analysis. In kind it is cell-based. The settings on record: U-937.
Test [13] has as its target T2, NAD-dependent protein deacetylase sirtuin-1 (Homo sapiens) (UniProt Q96EB6).
T2 sequence (whole entry): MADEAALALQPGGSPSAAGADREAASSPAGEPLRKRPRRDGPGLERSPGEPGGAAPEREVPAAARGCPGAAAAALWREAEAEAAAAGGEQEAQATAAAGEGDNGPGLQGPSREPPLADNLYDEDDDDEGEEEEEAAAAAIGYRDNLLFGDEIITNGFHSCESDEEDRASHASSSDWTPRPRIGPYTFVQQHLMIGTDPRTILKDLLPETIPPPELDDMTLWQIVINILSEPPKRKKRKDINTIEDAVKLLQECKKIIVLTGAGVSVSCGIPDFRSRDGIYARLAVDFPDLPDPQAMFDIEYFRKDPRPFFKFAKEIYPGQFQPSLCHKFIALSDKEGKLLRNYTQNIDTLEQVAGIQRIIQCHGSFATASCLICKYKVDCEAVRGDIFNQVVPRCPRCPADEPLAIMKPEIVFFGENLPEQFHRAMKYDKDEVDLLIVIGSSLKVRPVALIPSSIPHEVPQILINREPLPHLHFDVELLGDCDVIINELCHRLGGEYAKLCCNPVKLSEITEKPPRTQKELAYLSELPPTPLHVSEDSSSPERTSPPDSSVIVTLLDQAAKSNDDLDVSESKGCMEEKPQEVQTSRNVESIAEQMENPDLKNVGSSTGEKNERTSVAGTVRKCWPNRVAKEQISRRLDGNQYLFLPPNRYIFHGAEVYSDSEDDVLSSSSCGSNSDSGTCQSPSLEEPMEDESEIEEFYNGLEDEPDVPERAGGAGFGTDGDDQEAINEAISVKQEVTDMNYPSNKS
In words: Inhibition of human recombinant SIRT1 using KI-177 as substrate at 5 uM after 30 mins by fluorescence assay.

The target of test [14] is T2, NAD-dependent protein deacetylase sirtuin-1 (Homo sapiens). The experiment in a line: Inhibition of SIRT1 in human U937 cells assessed as H3 acetylation on lysine K9 at 5 uM after 24 hrs by Western blot analysis. In kind it is cell-based. The conditions noted are these: U-937.
The target is the same in test [15]. In words: Inhibition of SIRT1 in human U937 cells assessed as H3 acetylation on lysine K56 at 5 uM after 24 hrs by Western blot analysis. In kind it is cell-based. The settings on record: U-937.
For test [16] the target is unchanged. The experiment in a line: Inhibition of SIRT1 in human MCF7 cells assessed as p53 acetylation on lysine 382 after 24 hrs by Western blot analysis. In kind it is cell-based.
The target of test [17] is DNA (cytosine-5)-methyltransferase 1 (Homo sapiens) (UniProt P26358). The experiment in a line: Inhibition of recombinant DNMT1 using S-adenosyl-L-[methyl-3H]methionine as substrate at 5 uM after 2 hrs by radioactive assay.
Sequence of DNA (cytosine-5)-methyltransferase 1 (Homo sapiens) (P26358 whole entry): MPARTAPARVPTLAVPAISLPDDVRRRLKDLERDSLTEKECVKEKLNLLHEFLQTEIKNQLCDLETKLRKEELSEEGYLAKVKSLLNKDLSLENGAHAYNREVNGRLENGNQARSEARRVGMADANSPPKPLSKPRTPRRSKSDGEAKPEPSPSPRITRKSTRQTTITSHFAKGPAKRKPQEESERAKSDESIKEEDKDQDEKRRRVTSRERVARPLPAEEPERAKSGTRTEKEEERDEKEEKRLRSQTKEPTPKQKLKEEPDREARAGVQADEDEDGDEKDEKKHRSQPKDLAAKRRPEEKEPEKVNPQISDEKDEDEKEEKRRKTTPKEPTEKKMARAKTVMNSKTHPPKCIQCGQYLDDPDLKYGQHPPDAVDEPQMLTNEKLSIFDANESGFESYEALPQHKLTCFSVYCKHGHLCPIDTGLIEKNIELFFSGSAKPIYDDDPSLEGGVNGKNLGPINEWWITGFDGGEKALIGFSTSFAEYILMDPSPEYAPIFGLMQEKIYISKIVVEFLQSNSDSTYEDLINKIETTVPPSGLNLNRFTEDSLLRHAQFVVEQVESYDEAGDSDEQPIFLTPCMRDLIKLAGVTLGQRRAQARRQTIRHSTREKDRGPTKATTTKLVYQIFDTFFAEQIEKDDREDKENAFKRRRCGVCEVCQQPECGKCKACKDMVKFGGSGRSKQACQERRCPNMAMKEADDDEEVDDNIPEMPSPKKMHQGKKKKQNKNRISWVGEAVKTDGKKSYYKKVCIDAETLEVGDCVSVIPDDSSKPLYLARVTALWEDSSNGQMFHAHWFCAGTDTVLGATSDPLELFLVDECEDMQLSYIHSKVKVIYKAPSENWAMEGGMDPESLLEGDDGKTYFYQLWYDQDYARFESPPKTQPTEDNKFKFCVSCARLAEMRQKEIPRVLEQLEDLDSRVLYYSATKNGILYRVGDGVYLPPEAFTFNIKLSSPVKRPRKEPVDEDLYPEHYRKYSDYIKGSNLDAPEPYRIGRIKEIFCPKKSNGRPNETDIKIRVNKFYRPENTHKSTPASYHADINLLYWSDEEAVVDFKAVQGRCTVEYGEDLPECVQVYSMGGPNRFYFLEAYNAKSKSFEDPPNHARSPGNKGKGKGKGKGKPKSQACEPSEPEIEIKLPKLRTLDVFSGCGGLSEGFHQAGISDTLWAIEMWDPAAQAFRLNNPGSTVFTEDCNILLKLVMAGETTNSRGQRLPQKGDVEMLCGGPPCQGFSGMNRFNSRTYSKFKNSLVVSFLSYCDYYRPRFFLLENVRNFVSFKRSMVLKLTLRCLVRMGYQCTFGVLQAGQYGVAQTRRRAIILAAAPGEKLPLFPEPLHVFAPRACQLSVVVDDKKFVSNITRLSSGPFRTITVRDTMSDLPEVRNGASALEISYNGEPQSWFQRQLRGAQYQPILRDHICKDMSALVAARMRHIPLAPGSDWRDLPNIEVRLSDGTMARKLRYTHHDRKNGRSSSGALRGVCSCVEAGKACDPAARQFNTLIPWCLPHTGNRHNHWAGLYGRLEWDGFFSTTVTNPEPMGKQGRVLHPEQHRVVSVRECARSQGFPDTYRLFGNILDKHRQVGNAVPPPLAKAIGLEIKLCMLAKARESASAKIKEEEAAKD
The target is the same in test [18]. In words: Inhibition of DNMT1 human u937 cells assessed as reactivation of p16 expression at 0.5 to 5 uM after 24 hrs by Western blot analysis.
Test [19] addresses T2, NAD-dependent protein deacetylase sirtuin-1 (Homo sapiens). The experiment in a line: Inhibition of SIRT1 in human MCF7 cells assessed as p53 acetylation on lysine 382 at 5 uM after 24 hrs by Western blot analysis. In kind it is cell-based.
Test [20] concerns U-937. The experiment in a line: Cell cycle arrest in human U937 cells assessed as accumulation at G2M phase at 5 uM after 24 hrs by cytofluorimetric analysis. In kind it is functional, cell-based.
Test [21] concerns U-937. The experiment in a line: Cell cycle arrest in human U937 cells assessed as accumulation at G1 phase at 5 uM after 24 hrs by cytofluorimetric analysis. In kind it is functional, cell-based.

Activity calls are given as the source filed them. The calls are words filed in the database; no cut-off is given here.

Sequence of Histone deacetylase 4 (Homo sapiens) (P56524 whole entry): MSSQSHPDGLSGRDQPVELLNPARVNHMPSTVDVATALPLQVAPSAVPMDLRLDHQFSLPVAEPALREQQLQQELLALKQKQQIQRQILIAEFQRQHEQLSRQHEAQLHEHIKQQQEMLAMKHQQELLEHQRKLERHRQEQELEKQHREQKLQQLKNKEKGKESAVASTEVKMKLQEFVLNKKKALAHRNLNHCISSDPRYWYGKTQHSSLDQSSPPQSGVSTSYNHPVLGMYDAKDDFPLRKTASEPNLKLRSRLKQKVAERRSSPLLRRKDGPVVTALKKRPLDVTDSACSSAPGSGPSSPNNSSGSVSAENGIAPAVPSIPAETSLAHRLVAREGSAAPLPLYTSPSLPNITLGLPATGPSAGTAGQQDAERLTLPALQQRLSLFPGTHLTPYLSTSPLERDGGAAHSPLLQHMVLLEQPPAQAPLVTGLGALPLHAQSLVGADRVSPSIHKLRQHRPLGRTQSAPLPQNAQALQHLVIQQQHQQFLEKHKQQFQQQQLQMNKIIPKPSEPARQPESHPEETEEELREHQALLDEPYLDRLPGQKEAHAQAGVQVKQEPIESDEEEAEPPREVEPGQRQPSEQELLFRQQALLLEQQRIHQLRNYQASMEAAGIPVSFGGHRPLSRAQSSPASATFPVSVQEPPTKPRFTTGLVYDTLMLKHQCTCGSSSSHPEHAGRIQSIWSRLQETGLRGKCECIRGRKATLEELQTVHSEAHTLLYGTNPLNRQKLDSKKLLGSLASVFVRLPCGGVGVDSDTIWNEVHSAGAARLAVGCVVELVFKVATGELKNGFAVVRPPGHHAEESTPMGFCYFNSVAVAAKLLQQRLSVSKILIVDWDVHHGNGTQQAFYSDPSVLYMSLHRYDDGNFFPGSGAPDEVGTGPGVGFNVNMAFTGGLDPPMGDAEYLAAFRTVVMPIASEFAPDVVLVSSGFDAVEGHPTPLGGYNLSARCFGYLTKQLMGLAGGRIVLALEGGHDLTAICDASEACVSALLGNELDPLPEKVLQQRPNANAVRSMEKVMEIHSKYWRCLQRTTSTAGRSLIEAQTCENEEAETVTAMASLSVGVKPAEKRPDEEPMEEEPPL

For `O=C(NCCSSCCNC(=O)/C(Cc1ccc(O)c(Br)c1)=N/O)/C(Cc1ccc(O)c(Br)c1)=N/O`, the outcome in [1], in test [2] and in test [3] was Active. In test [4], the inhibition – broadly, how much of the control response was suppressed – is “Active”.
`O=C(NCCSSCCNC(=O)/C(Cc1c[nH]c2cc(Br)ccc12)=N/O)/C(Cc1c[nH]c2cc(Br)ccc12)=N/O`: the outcome in test [1], in [6], in test [2], in test [9] and in test [3] was Active. For the same compound, the inhibition in [5] stood at 40%; in test [8] it was 60%. Also, the inhibition entry in test [7], in test [10] and in test [4] was “Active” in each case.
For `O=C(NCCO)/C(Cc1c[nH]c2ccc(Br)cc12)=N/O`, the outcome in test [11] was inactive. Besides, the inhibition entry in [12] and in [4] was “Active” throughout. Moreover, the inhibition entry in test [13], in test [14] and in test [15] was “inactive” throughout. Further, in test [16], the inhibition entry was “Dose-dependent effect”.
Turning to `Cn1cc(C/C(=N\O)C(=O)NCCSSCCNC(=O)/C(Cc2cn(C)c3ccc(Br)cc23)=N/O)c2cc(Br)ccc21`, the result in [1] and in [6] was Active. For the same compound, the inhibition entry in [17] and in test [13] was “inactive” throughout. The result in [11] was inactive. Also, the inhibition result in [18], in test [7], in test [8], in test [12], in [10] and in test [14] was “Active” each time. Also, the inhibition entry in test [15] and in test [4] was “Active” in each case. For the same compound, in [16], the inhibition result is “Dose-dependent effect”.
As for `O=C(NCCSSCCNC(=O)/C(Cc1c[nH]c2c(Br)cccc12)=N/O)/C(Cc1c[nH]c2c(Br)cccc12)=N/O`, the result in [1], in test [6], in [2], in [9] and in [3] was Active. Moreover, the inhibition in test [5] worked out at 40%; in test [8], 60%. Further, the inhibition entry in test [7], in test [10] and in [4] was “Active” in each case.
As for `CSCCNC(=O)/C(Cc1c[nH]c2ccc(Br)cc12)=N/O`, the outcome in test [1], in test [11] and in [20] was inactive. Besides, the inhibition was determined as 20% in [5] and 40% in test [8]. The inhibition result in test [17] and in test [13] was “inactive” throughout. Also, the outcome in test [6], in test [3] and in [21] was Active. The inhibition result in test [18], in [7], in test [19], in test [10], in [14] and in [15] was “Active” throughout. Moreover, in test [4], the inhibition result is “Active”.
Turning to `O=C(NCCSSCCNC(=O)/C(Cc1c[nH]c2ccc(OCc3ccccc3)cc12)=N/O)/C(Cc1c[nH]c2ccc(OCc3ccccc3)cc12)=N/O`, the result in [1] and in [6] was Active. Besides, the inhibition result in test [5], in test [17], in test [7], in test [8], in test [12] and in test [10] was “Active” in each case. Further, the inhibition result in [4] is “Active”. Moreover, in test [11], the result was inactive. Also, the inhibition entry in [16] was “Dose-dependent effect”.
Consider `O=C(NCCSSCCNC(=O)/C(Cc1c[nH]c2ccc(Br)cc12)=N/O)/C(Cc1c[nH]c2ccc(Br)cc12)=N/O`, for which the result in test [1], in [2] and in test [3] was Active. The inhibition in [5] came to 40%; in [8] it was 60%. The inhibition result in test [17], in test [18], in test [7], in test [19], in test [12] and in test [10] was “Active” each time. The inhibition result in [13] and in test [4] was “Active” each time. For the same compound, the outcome in [11] was inactive.

Values taken from ChEMBL document CHEMBL2177007, “Indole-derived psammaplin A analogues as epigenetic modulators with multiple inhibitory activities” (J Med Chem, 2012).
